Measured values from US6576437B2, “Stimulus-inducible protein kinase complex and methods of use therefor” (Signal Pharmaceuticals, Inc., priority 1996, dated 2003).
Entries after “also recorded” stand apart in the source; their conditions may differ. Square brackets hold non-standard residues; d marks the D form. Ends that are not written are not given here. Peptide text beside a SMILES is read from it. pS = N[C@@H](COP(=O)(O)O)C(=O)O

What was measured:
IKK signalsome [1] = molecular target: T1, IKK signalsome (Homo sapiens, UniProt O14920+O15111); test: Phosphorylation of synthetic peptides by the IKK signalsome (immunokinase assay); type: biochemical; conditions: peptide 100 μM; for phosphorylation of peptide by IKK signalsome: γ-[32P]-ATP, one hour at room temperature
T1 construct: endogenous in cells; host or cells: HeLa / HeLa S3 cells stimulated with TNFα; anti-MKP-1 immunoprecipitate
T1 sequence (O15111 whole entry): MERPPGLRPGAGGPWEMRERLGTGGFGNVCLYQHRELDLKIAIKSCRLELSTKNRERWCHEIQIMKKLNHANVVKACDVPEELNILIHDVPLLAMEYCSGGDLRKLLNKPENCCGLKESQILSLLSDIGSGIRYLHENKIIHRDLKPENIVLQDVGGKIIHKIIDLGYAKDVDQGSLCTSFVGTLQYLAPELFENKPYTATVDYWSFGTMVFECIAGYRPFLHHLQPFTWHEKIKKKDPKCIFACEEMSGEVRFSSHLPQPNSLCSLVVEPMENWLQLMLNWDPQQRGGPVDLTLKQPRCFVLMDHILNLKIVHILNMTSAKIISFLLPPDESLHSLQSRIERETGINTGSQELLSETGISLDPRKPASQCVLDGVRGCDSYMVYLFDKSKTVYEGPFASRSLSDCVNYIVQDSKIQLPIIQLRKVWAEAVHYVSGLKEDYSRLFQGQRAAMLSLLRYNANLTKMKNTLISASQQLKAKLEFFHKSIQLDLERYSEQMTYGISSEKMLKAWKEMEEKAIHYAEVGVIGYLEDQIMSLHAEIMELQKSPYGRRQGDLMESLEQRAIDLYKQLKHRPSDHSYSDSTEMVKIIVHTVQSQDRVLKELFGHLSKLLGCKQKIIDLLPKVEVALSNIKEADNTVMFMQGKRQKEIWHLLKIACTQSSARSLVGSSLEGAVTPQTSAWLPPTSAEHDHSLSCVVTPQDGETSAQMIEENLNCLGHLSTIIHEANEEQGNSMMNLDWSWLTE
T1 sequence (O14920 whole entry): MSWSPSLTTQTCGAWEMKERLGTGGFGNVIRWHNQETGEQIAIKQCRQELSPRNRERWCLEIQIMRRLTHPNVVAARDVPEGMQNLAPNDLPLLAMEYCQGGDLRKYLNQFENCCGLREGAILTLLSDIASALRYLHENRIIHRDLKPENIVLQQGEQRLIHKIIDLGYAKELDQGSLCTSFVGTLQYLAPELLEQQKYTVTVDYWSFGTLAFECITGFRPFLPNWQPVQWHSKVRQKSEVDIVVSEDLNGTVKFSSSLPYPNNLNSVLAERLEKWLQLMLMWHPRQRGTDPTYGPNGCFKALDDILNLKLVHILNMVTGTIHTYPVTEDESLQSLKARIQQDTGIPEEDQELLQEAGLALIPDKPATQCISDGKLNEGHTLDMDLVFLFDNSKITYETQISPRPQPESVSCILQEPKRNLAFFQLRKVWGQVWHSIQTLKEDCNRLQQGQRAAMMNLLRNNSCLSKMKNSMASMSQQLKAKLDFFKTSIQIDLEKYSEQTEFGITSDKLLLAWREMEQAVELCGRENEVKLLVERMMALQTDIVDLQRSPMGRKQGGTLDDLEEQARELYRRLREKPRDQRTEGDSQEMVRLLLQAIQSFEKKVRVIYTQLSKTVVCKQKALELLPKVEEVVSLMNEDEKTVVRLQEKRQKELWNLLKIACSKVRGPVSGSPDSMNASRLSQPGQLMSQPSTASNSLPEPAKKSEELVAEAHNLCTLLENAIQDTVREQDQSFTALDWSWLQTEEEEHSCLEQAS
T1 sequence (Q9Y6K9 whole entry partner): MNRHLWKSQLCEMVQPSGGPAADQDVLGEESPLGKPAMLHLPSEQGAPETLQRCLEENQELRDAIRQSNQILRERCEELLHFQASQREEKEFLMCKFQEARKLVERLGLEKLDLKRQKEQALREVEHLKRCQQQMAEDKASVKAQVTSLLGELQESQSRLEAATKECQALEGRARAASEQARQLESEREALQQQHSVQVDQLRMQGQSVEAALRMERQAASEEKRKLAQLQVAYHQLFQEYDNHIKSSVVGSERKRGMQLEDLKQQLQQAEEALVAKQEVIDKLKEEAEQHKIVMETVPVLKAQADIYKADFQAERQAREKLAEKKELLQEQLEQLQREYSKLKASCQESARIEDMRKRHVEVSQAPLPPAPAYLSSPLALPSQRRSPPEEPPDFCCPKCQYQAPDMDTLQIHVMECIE
Method: FIG. 9A is an autoradiogram depicting the results of an immunokinase assay in which peptides are phosphorylated by the IKK signalsome. In the top panel, IκBα(21-41) peptides that were unphosphorylated or chemically phosphorylated on either Ser-32 or Ser-36 were incubated with the IKK signalsome in the presence of γ-[^32P]-ATP.
Phosphorylation of these peptides (100 μM) was performed using a kinase reaction as described above. Reactions were for one hour at room temperature and were terminated by the addition of SDS-PAGE loading buffer. SDS-PAGE with a 16% Tris/tricine gel (Novex, San Diego, Calif.) or a 4-20% Tris/glycine gel (Novex, San Diego, Calif.) was used to characterize the reaction products. Gels were washed, dried in vacuo, and exposed to autoradiographic film.

IKK signalsome [2] = molecular target: T1, IKK signalsome; test: Inhibition of immunopurified IKK signalsome activity (32P incorporation into GST-IκBα(1-54)); type: biochemical; conditions: GST-IκBα(1-54) 0.56 μM, ATP 3 μM; for inhibition of IKK signalsome kinase (phosphorylation of GST-IκBα (1-54)): one hour at room temperature
Method: FIG. 9B is a graph illustrating the inhibition of phosphorylation of GST-IκBα (1-54) by IκBα(21-41) peptides. […] This assay only detects precipitated ^32P-labeled proteins, not ^32P-labeled peptides. Addition of the singly- or non-phosphorylated IκBα(21-41) peptides results in less phosphorylation of GST-IκBα (1-54) and apparent inhibition.
Inhibition of immunopurified IKK signalsome activity was measured by ^32P incorporation into GST-IκBα(1-54) in a discontinuous assay using the reaction conditions described above. The concentrations of GST-IκBα(1-54) and ATP used in the inhibition studies were 0.56 μM and 3 μM, respectively. Enzymatic reactions (32 μL) were carried out in wells of a 96 well assay plate for one hour at room temperature and terminated with the addition of trichloroacetic acid (TCA) (150 μL/well of 12.5% w/v). The subsequent 20 minute incubation with TCA precipitated the proteins but not peptides from solution. The TCA precipitate was collected on 96-well glass fiber plates (Packard) and washed 10 times with approximately 0.3 mL per well of Dulbecco's phosphate buffered saline pH 7.4 (Sigma) using a Packard Filtermate 196. Scintillation fluid (0.50 mL, MicroScint, Packard) was added to each well and the plate was analyzed for ^32P using a Packard TopCount scintillation counter. Less than 10% of ATP was turned over in the course of the assay reaction, ensuring that the kinetic data represented initial rate data. The inhibition constant of the P32, 36 peptide was determined by Dixon analysis (Dixon and Webb, In Enzymes (Academic Press: New York, ed. 3, 1979), pp. 350-51.

IKK signalsome [3] = molecular target: T1, IKK signalsome; test: IKK signalsome activity in anti-MKP-1 immunoprecipitates from TNFα-stimulated HeLa S3 cells pretreated with inhibitor; type: cell-based; conditions: HeLa S3 cells pretreated 30 min with 15 μM prior to TNFα (20 ng/ml, 7 min)
Method: FIG. 8B illustrates the stimulus-dependent activation of IKK signalsome, which is blocked by TPCK. Anti-MKP-1 immunoprecipitates from cell extracts of HeLa S3 cells either stimulated for 7 min with TNFα (20 ng/ml, lane 2 and 6), IL-1 (10 ng/ml, lane 3), PMA (50 ng/ml, lane 4) or pretreated for 30 min with TPCK (15 μM, lane 7) prior to TNFα-induction were examined for IKK signalsome activity. GST IκBα 1-54 WT (4 μg) was used as a substrate.
For these studies, small scale immunoprecipitation were performed using two 150 mm plates of HeLa cells (one stimulated and one unstimulated). Whole cell lysates were diluted 4-fold with 2×Pull-Down Buffer (40 mM Tris pH 8.0, 500 mM NaCl, 0.1% NP-40, 6 mM EDTA, 6 mM EGTA, 10 mM β-glycerophosphate, 10 mM NaF, 10 mM PNPP, 300 μM Na3VO4, 1 mM benzamidine, 2 μM PMSF, 10 μg/ml aprotonin, 1 μg/ml leupeptin, 1 μg/ml pepstatin, 1 mM DTT) and 2-4 μg of the indicated antibody was added. Lysates were incubated on ice for 1-2 hours, 10 μl of Protein A or G beads were added, and lysates were left to incubate with gentle rotation for an additional 1 hour at 4° C. The immunoprecipitate was then washed 3 times with 2×Pull-Down Buffer, 1× with kinase buffer without ATP and subjected to a kinase assay as described in Example 2. […]

[4] = test system: RelA translocation in HeLa cells; test: RelA nuclear translocation in transiently transfected HeLa cells (immunofluorescence); type: cell-based, human
Method: HeLa cells were transiently transfected with either HA-tagged IKK-1 K44 to M mutant (14B) or Flag-tagged IKK-2 K44 to M mutant (14C) expression vectors. 36 hours post-transfection cells were either not stimulated (Unstim) or TNFα-stimulated (20 ng/ml) for 30 min (TNFα), as indicated to the right of the figure. Cells were then subjected to immunofluorescence staining using anti-HA of anti-Flag antibodies to visualize expression of IKK-1 K44 to M or IKK-2 K44 to M, respectively. Stimulus-dependent translocation of Rel A was monitored using anti-Rel A antibodies. Antibodies used are indicated to the top of the figure. IKK mutant transfected is indicated to the left of the figure.
For these studies, HeLa cells were transiently transfected with either HA-tagged IKK-1 or Flag-tagged IKK-2. Cells were fixed for 30 minutes with methanol. For immunofluorescence staining, the cells were incubated sequentially with primary antibody in PBS containing 10% donkey serum and 0.25% Triton X-100 for 2 hours followed by fluorescein-conjugated or Texas red-conjugated secondary antibody (Jackson Immunoresearch Laboratories, Inc., West Grove, Pa.; used at 1:500 dilution) for 1 hour at room temperature. The coverslips were rinsed and coverslipped with Vectashield (Vector Laboratories, Burlingame, Calif.) before scoring and photographing representative fields. […]

DLTGGPEVAT(PO3)PESEEAFLP [c-Fos(222-241)]
phosphorylation of peptide by IKK signalsome (IKK signalsome [1]): did not function as a signalsome substrate
phosphorylation of peptide by IKK signalsome (IKK signalsome [1]; listed as c-Fos phosphopeptide): did not phosphorylate
inhibition of IKK signalsome kinase (phosphorylation of GST-IκBα (1-54)) (IKK signalsome [2]): does not function as an inhibitor
inhibition of IKK signalsome kinase (phosphorylation of GST-IκBα (1-54)) (IKK signalsome [2]; listed as c-Fos phosphopeptide): not
inhibition of IKK signalsome kinase (phosphorylation of GST-IκBα (1-54)) (IKK signalsome [2]; listed as c-fos phosphopeptide): not

CPTNSALNYLKSPITTSPS [MKP-1 peptide]
phosphorylation of peptide by IKK signalsome (IKK signalsome [1]): did not phosphorylate

CKKERLLDDRHDSGLDSMKDEE [IκBα (21-41) peptide]
phosphorylation of peptide by IKK signalsome (IKK signalsome [1]): capable of phosphorylating
inhibition of IKK signalsome kinase (phosphorylation of GST-IκBα (1-54)) (IKK signalsome [2]): less effective inhibitors

CSCC[C@H](NC(=O)[C@H](COP(=O)(O)O)NC(=O)[C@H](CC(=O)O)NC(=O)[C@H](CC(C)C)NC(=O)CNC(=O)[C@H](COP(=O)(O)O)NC(=O)[C@H](CC(=O)O)NC(=O)[C@H](Cc1c[nH]cn1)NC(=O)[C@H](CCCNC(=N)N)NC(=O)[C@H](CC(=O)O)NC(=O)[C@H](CC(=O)O)NC(=O)[C@H](CC(C)C)NC(=O)[C@H](CC(C)C)NC(=O)[C@H](CCCNC(=N)N)NC(=O)[C@H](CCC(=O)O)NC(=O)[C@H](CCCCN)NC(=O)[C@H](CCCCN)NC(=O)[C@@H](N)CS)C(=O)N[C@@H](CCCCN)C(=O)N[C@@H](CC(=O)O)C(=O)N[C@@H](CCC(=O)O)C(=O)N[C@@H](CCC(=O)O)C(=O)O [IκBα(21-41) peptide P32,36] (H-CKKERLLDDRHD[pS]GLD[pS]MKDEE-OH)
Ki (IKK signalsome [2]; Dixon analysis, read-out: Ki (product inhibition of GST-IκBα (1-54) phosphorylation)): 14 µM

CKKERLLDDRHDTGLDTMKDEE
phosphorylation by the signalsome, fold less well than the wild-type serine-containing peptide (IKK signalsome [1]): at least 10 fold

Cc1ccc(S(=O)(=O)N[C@@H](Cc2ccccc2)C(=O)CCl)cc1 [TPCK]
IKK signalsome activity in treated cells (IKK signalsome [3]): inhibited; also recorded: blocked

singly-phosphorylated IκBα peptides: two IκBα (21-41) peptides, free serine at position 32 or 36 and phosphoserine at the other position (KKERLLDDRHDSGLDSMKDEE; not fully specified (N-terminus); also: pS at S32 or S36, free Ser at the other (two peptides); UniProt P25963 21-41, looked up, fragment)
inhibition of IKK signalsome kinase (phosphorylation of GST-IκBα (1-54)) (IKK signalsome [2]): less effective inhibitors

B1: IKK-2 mutant: Flag-tagged kinase-inactive version (K44 to M) of IKK-2 (protein, UniProt O14920 1-756, looked up, variant K44M)
Inhibitor of nuclear factor …: MSWSPSLTTQTCGAWEMKERLGTGGFGNVIRWHNQETGEQIAIMQCRQELSPRNRERWCLEIQIMRRLTHPNVVAARDVPEGMQNLAPNDLPLLAMEYCQGGDLRKYLNQFENCCGLREGAILTLLSDIASALRYLHENRIIHRDLKPENIVLQQGEQRLIHKIIDLGYAKELDQGSLCTSFVGTLQYLAPELLEQQKYTVTVDYWSFGTLAFECITGFRPFLPNWQPVQWHSKVRQKSEVDIVVSEDLNGTVKFSSSLPYPNNLNSVLAERLEKWLQLMLMWHPRQRGTDPTYGPNGCFKALDDILNLKLVHILNMVTGTIHTYPVTEDESLQSLKARIQQDTGIPEEDQELLQEAGLALIPDKPATQCISDGKLNEGHTLDMDLVFLFDNSKITYETQISPRPQPESVSCILQEPKRNLAFFQLRKVWGQVWHSIQTLKEDCNRLQQGQRAAMMNLLRNNSCLSKMKNSMASMSQQLKAKLDFFKTSIQIDLEKYSEQTEFGITSDKLLLAWREMEQAVELCGRENEVKLLVERMMALQTDIVDLQRSPMGRKQGGTLDDLEEQARELYRRLREKPRDQRTEGDSQEMVRLLLQAIQSFEKKVRVIYTQLSKTVVCKQKALELLPKVEEVVSLMNEDEKTVVRLQEKRQKELWNLLKIACSKVRGPVSGSPDSMNASRLSQPGQLMSQPSTASNSLPEPAKKSEELVAEAHNLCTLLENAIQDTVREQDQSFTALDWSWLQTEEEEHSCLEQAS
modifications: Flag tag
inhibition of RelA nuclear translocation ([4]; TNFα-stimulated (20 ng/ml, 30 min) HeLa cells, 36 hours post-transfection): striking and complete
effect on subcellular localization of RelA ([4]; unstimulated HeLa cells): no effect
